Reference: patent US20080108611A1, “SUBSTITUTED THIENOPYRIMIDINE KINASE INHIBITORS” (priority 2006, published 2008)

Tests used:
[1] = biological target: T1, VEGF-R2 (Rattus norvegicus, UniProt O08775); experiment: VEGF-R2 Screening Assay; type: biochemical; details: rat VEGF-R2 kinase domain, 10 μM ATP
T1 construct: polyhistidine (N)
Protocol: (§1) A kinase reaction mixture was prepared containing 50 mM Tris-HCl at pH 8, 10 mM MgCl2, 0.1 mM Na3PO4, 1 mM DTT, 10 μM ATP, 0.025 μM biotinylated histone-H1 peptide substrate and 0.2 μCuries per well ^33P-γ-ATP (2000-3000 Ci/mmol). 70 μL of the kinase reaction mixture was dispensed into the well of a Streptavidin FlashPlate.
(§2) Test compound stock in 100% DMSO (1 μL) was added to the wells resulting in a final concentration of 1% DMSO in the reaction with a 100 μL final reaction volume. Each enzyme was diluted in 50 mM Tris-HCl pH=8.0, 0.1% BSA and 30 μL was added to each well to initiate the reaction. The reaction was incubated for one hour at 30° C. At the end of the 1 hr incubation, the reaction was terminated by aspirating the mixture from the plate and washing the wells twice with PBS containing 100 mM EDTA. The biotinylated peptide substrate became immobilized on the Flashplate™ and the incorporation of ^33P-γ-ATP was measured by reading the plate on a scintillation counter. Inhibition of the enzymatic activity was measured by observing a reduced amount of ^33P-γ-ATP incorporated into the immobilized peptide.
The VEGF-R2 enzyme is a fusion protein containing a polyhistidine tag at the N terminus followed by amino acids 786 to 1343 of the rat VEGF-R2 kinase domain (Accession number U93306). The assay used 150 ng of the N-terminal biotinylated peptide biotin-KHKKLAEGSAYEEV-amide (VEGF-R2) per well.
(§3) The IC50 was derived according to the procedure described in Example 1.

[2] = biological target: T2, Aurora-A (Mus musculus, UniProt P97477); experiment: Aurora-A Screening Assay; type: biochemical; details: murine Aurora-A full length, 10 μM ATP
T2 construct: followed by the full length protein encoding the murine Aurora-A; polyhistidine (N); made in house; host or cells: Sf9 insect cells
T2 sequence (P97477 1-395): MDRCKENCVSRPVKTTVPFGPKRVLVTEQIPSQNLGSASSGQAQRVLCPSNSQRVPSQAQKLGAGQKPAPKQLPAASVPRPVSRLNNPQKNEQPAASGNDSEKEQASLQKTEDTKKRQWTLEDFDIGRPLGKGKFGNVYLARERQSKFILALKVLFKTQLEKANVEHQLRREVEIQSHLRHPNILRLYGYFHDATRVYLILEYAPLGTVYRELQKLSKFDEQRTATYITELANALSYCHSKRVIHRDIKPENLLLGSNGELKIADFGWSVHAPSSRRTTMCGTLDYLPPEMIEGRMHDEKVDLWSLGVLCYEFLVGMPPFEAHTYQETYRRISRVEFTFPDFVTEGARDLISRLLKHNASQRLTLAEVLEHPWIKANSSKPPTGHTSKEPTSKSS
Protocol: as §1, §2
Aurora-A is a fusion protein containing a polyhistidine tag at the N terminus followed by the full length protein encoding the murine Aurora-A (Accession number GB BC014711) expressed and purified from sf9 insect cells. The assay used 400 ng of the N-terminal biotinylated peptide biotin-GRTGRRNSI-amide (Aurora-A) per well.
as §3

[3] = biological target: T3, HER-2 (Homo sapiens, UniProt P04626); experiment: HER-2 Kinase Assay; type: biochemical; details: GST-HER2, 1 μM ATP
T3 construct: the nucleotides encoding amino acids 679 to 1255 of HER-2; HIS6-Thrombin (His6 tag and thrombin site) (N); purchased Proqinase (Freiburg, Germany)
Protocol: HER-2 kinase was purified at Proqinase (Freiburg, Germany) from a construct that consisted of a fusion of GST (Glutathione-S-Transferase), HIS6-Thrombin and the nucleotides encoding amino acids 679 to 1255 of HER-2.
A mixture of a 10× kinase reaction buffer (600 mM Hepes at pH 7.5, 30 mM Magnesium Chloride, 0.03 mM Sodium Vanadate and 500 μg/mL PEG 20,000), DTT (1.2 mM final from a 10 mM stock), ATP (1 μM from a 10 mM stock), biotinylated polyGluTyr (1.5 ng/μL final from stock of 1 μg/μL prepared by Upstate Biotechnologies, Lake Placid, N.Y.), Manganese Chloride (3 mM final from a 1 M stock), γ-^33P-ATP (10 μCi/μL stock) and water (70 μL/well) was added to each well of a Streptavidin Flashplate (Cat. # SMP103, NEN, Boston, Mass.).
Test compound stock (1 μL) was added to the appropriate wells. Diluted GSTHER2 kinase (6.7 ng/μL diluted into 50 mM Tris-HCl at pH 8.0 and 0.1% bovine serum albumin) (30 μL) was added (total volume of 200 ng/well) to initiate the reactions.
The reaction plates were incubated at 30° C. for 1 hr. The reaction was terminated by aspirating the reaction mixture from the plate wells and washing the wells three times with a 1×PBS stop buffer (300 μL) and 100 mM EDTA. After the final wash, the same stop buffer (200 μL) was again added to the wells. The plates were then sealed and read on the TopCount scintillation counter. The IC50 was derived according to the procedure described in Example 1.

[4] = tested on: HeLa cervical adenocarcinoma; experiment: Cell Proliferation Inhibition Assay (14C-thymidine incorporation), HeLa; type: cell-based; details: Homo sapiens; HeLa cells
Protocol: (§4) The ability of a test compound to inhibit unregulated cell proliferation was determined by measuring incorporation of ^14C-labelled thymidine into newly synthesized DNA within cell lines derived from carcinomas originating from several tissues. Accordingly, the anti-proliferative effect of a compound on cells with a variety of phenotypes may be determined.
(§5) Carcinoma cell lines include those such as HeLa cervical adenocarcinoma (American Type Culture Collection (ATCC), Virginia, Cat. #CCL-2), A375 malignant melanoma (ATCC CRL-1619), SK-OV-3 ovarian adenocarcinoma (ATCC HTB-77), HCT-116 colon carcinoma (CCL-247), PC-3 prostate adenocarcinoma (ATCC CRL-1435), and MDA-MB-231 (Xenogen Corp.)
(§6) The carcinoma cells were trypsinized and counted. The cells (3000-8000 count) were added to each well of a 96-well CytoStar tissue culture treated scintillating microplate (Amersham #RPNQ0160) in complete medium (100 μL) and the plate was then incubated in complete medium for 24 hrs at 37° C. in an […] atmosphere containing 5% CO2. Test compound (1 μL) in 100% DMSO was added to the plate test-wells with DMSO only added to control-wells. The plate was incubated in complete medium for a second 24 hr period at 37° C. in an atmosphere containing 5% CO2.
(§7) An aliquot of a solution of methyl ^14C-thymidine (56 mC/mmol) (NEN #NEC568 or Amersham #CFA532) and complete medium (20 uL to provide 0.2 μCi/well) was then added to each well and the plate was incubated for a third 24 hr period at 37° C. in an atmosphere containing 5% CO2. The plate contents were then discarded, the plate was washed twice with PBS (200 μL) and then PBS (200 μL) was added to each well. The plate was sealed and the degree of methyl ^14C-thymidine incorporation was quantified on a Packard Top Count.

[5] = tested on: A375 malignant melanoma; experiment: Cell Proliferation Inhibition Assay (14C-thymidine incorporation), A375; type: cell-based; details: Homo sapiens, A-375; A375 cells
Protocol: as §4, §5, §6, §7

[6] = tested on: HCT-116 colon carcinoma; experiment: Cell Proliferation Inhibition Assay (14C-thymidine incorporation), HCT116; type: cell-based; details: Homo sapiens, HCT116 cells
Protocol: as §4, §5, §6, §7

T1 sequence (O08775 786-1343): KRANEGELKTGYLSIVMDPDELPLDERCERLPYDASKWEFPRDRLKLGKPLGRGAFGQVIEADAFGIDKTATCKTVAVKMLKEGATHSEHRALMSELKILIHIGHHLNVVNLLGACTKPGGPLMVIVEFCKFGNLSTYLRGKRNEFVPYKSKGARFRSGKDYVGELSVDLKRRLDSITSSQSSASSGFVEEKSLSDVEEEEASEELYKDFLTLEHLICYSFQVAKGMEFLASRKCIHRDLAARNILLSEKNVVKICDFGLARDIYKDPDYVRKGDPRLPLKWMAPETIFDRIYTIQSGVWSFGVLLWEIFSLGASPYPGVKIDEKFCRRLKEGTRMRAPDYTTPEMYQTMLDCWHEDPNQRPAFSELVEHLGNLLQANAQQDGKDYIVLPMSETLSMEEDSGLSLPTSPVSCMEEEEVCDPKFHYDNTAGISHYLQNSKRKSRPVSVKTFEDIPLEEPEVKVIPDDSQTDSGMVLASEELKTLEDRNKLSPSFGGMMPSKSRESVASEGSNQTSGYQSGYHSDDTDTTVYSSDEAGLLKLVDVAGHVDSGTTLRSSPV
T3 sequence (P04626 679-1255): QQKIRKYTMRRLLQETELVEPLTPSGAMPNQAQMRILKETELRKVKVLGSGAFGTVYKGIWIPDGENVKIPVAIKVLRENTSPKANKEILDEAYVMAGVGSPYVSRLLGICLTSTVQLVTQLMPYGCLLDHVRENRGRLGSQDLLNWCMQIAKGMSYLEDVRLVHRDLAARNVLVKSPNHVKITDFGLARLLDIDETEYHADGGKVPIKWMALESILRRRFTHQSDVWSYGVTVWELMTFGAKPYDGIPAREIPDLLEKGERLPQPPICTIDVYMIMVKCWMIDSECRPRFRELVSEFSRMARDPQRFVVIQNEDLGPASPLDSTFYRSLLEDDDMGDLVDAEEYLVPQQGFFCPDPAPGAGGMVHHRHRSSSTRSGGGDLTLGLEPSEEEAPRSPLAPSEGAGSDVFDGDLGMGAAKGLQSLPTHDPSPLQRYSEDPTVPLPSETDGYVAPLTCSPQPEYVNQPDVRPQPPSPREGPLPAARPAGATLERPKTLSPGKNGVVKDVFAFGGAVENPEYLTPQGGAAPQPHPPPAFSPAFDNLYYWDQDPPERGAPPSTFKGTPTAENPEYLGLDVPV

Structure (SMILES)	IC50 [1] [µM]	IC50 [2] [µM]	IC50 [3] [µM]	IC50 [4] [µM]	IC50 [5] [µM]	IC50 [6] [µM]
Cc1c(C(=O)NCCCN2CCOCC2)sc2ncnc(Nc3ccc(NC(=O)c4ccccc4)cc3)c12 [Cpd 26, 4-(4-benzoylamino-phenylamino)-5-methyl-thieno[2,3-d]pyrimidine-6-carboxylic acid (3-morpholin-4-yl-propyl)-amide]	> 100	> 1	> 10	> 10	> 10	> 10
Cc1c(C(=O)NCCN2CCOCC2)sc2ncnc(Nc3ccc(NC(=O)c4ccccc4)cc3)c12 [Cpd 25, 4-(4-benzoylamino-phenylamino)-5-methyl-thieno[2,3-d]pyrimidine-6-carboxylic acid (2-morpholin-4-yl-ethyl)-amide]	> 100	> 10	> 100	> 10	> 10	> 10
